These results are taken from patent publication US20220062233A1 (The Board of Trustees of the Leland Stanford Junior …, priority 2018, published 2022).

The term IC50 denotes the concentration needed to halve the response being measured.

Data set [1] has as its target T1, interaction between Supt4h and NGN (subunit of Supt5h) (Homo sapiens, UniProt O00267+P63272).
T1 construct: expressed in transfected cells
Briefly: Split Gaussia luciferase complementation assay (M2-8 Luciferase). Conditions: M2-8 cells. The data set is classed as cell-based. As for the experimental part:
A. Split Gaussia Luciferase Complementation Assay […]
i: pNBR-X1-Supt4-Gluc1 and pNEBR-X1-NGN-Gluc2
The HA-Supt4h and Flag-NGN fragments are amplified by PCR using the plasmid pHA-Supt4h-YC and pFlag-NGN-YN and sub-cloned individually into pcDNA3.1-Gluc1 and pcDNA3.1-Gluc2 (described in “A highly sensitive protein-protein interaction assay based on Gaussia luciferase” published at Nat Methods. 2006 December; 3(12):977-9. Epub 2006 Nov. 12). Then HA-Supt4h-Gluc1 and Flag-NGN-Gluc2 are amplified by PCR and inserted to pNEBR-X1-Hygro (New England BioLabs), which contain RheoSwitch responsive element under the control of RheoSwitch ligand. […]
ii: pNEBR-X1-Supt4h-G1-NGN-G2
PCR products containing the sequence from 5XRE to polyA in pNEBR-X1-NGN-G2 are inserted to pNEBR-X1-Supt4h-G1 at Pcil site to generate Supt4h-G1 and NGN-G2 bidirectional under their own RheoSwitch responsive element and polyA in the same plasmid. […]
b. Stable Cloned Cell Line i: 293-R1 is a cloned cell line which is engineered to constitutively express RSL1 receptor/activator by transfecting HEK 293 cells with pNEBR-R1 plasmid (New England BioLabs) and selected with blasticidin. […]
ii: M2-8 is a cloned 293-R1 cell which can inducibly express pNEBR-X1-Supt4h-G1-NGN-G2 by addition of RSL1. Two point mutations ([…] and M110I) are introduced to the GL1 and GL2 for better stability according to “A high-throughput cell-based Gaussia luciferase reporter assay for identifying modulators of fibulin-3 secretion” published in J Biomol Screen. 2013 July; 18(6):647-58. The cell line is selected by hygromycin. […]
c. Cell Culture and Transfection Condition
All the HEK-293 cells and derivative clones are maintained in DMEM containing 10% FBS plus corresponding antibiotics (250 μg/ml hygromycin B, 10 μg/ml blasticidin or both) at 37° C., 5% CO2. All the transfections are done by using Lipofectamine 2000 (Invitrogen) according to the manufacturer's instructions. […]
d. Bioluminescence Assay from Cell Lysates
Plasmids harboring the Gluc1 and Gluc2 are co-transfected in a 1:1 ratio into 293-R1 cells plated on tissue culture treated 24-well plates using Lipofectamine 2000 according to the manufacturer's instructions. For stable M2-8 cells, the cells are directly plated into 96-well or 384-well white plates. Twenty-four hours later, RheoSwitch ligand with or without test compound is added to the cells for induction/drug treatment. After 24 hr, the cells are washed with PBS and the plate was stored at −20° C. overnight. Lysis buffer [30 mM Tris-HCl (pH 8.0) 5 mM NaCl, 0.1% Triton X-100] with 10 μg/ml native coelenterazine (Nanolight Technology) is then added to the cells at room temperature for one hour in the dark. After shaking for about 1 min, 40 μl of cell lysate are transferred to a white 96-well plate. For M2-8 in white micro plate, no transfer is needed. Signal intensities (integrated 100 ms) were read on Tecan Infinite M200 or M1000.
The split Gaussia luciferase complementation assay measures the interaction between Sup4h and NGN. NGN is the subunit of Supt5h that binds to Supt4h.

The test system of a further data set is M2-8 cells. Kind of data set: M2-8 Cell viability Assay. The following applies: at the concentration of 1000 nM. The data set is classed as cell-based.

Regarding `CCc1ccc2[nH]c3c(c2c1)CCC[C@H]3NCc1ccccc1` [Compound 6], the IC50 in data set [1] lay within 301 to 1000 nM. For the same molecule, the “M2-8 Cell viability” value in the data set with M2-8 cells is recorded as “+ (cell viability is greater than 50% at the concentration of 1000 nM)”.
In the same order, the values of `COCC(N[C@@H]1CCCc2c1[nH]c1ccc(Br)cc21)c1ccc(CN2CCN(C(C)=O)CC2)cc1` (stereo partly shown) [Compound 62] are 101 to 300 nM and “+ (cell viability is greater than 50% at the concentration of 1000 nM)”.
`Brc1ccc2[nH]c3c(c2c1)CCC[C@H]3NCc1ccc(I)cc1` [Compound 40, (R)-6-bromo-N-(4-iodobenzyl)-2,3,4,9-tetrahydro-1H-carbazol-1-amine] registered an IC50 in data set [1] of 101 to 300 nM. Also, in the data set on M2-8 cells, the “M2-8 Cell viability” value is listed as “+ (cell viability is greater than 50% at the concentration of 1000 nM)”.
For `Brc1ccc2[nH]c3c(c2c1)CCC[C@H]3NCc1ccc(CN2CCOCC2)cc1` [Compound 72] the same measures were at most 100 nM and “+ (cell viability is greater than 50% at the concentration of 1000 nM)”.
In the same order, the values of `CC(C)(O)c1ccc(C(CF)N[C@@H]2CCCc3c2[nH]c2ccc(Br)cc32)cc1` (single isomer, unassigned) [Compound 55] are at most 100 nM and “+ (cell viability is greater than 50% at the concentration of 1000 nM)”.
The molecule `Brc1ccc2[nH]c3c(c2c1)CCC[C@H]3NCc1ccc2ccccc2c1` [Compound 20, (R)-6-bromo-N-(naphthalen-2-ylmethyl)-2,3,4,9-tetrahydro-1H-carbazol-1-amine] returned an IC50 in data set [1] of 101 to 300 nM. In addition, the “M2-8 Cell viability” value in the data set on M2-8 cells was “+ (cell viability is greater than 50% at the concentration of 1000 nM)”.
In data set [1], `CC(C)(OCCO)c1ccc(CN[C@@H]2CCCc3c2[nH]c2ccc(Br)cc32)cc1` [Compound 56, (R)-2-((2-(4-(((6-bromo-2,3,4,9-tetrahydro-1H-carbazol-1-yl)amino)methyl)phenyl)propan-2-yl)oxy)ethan-1-ol] came in with an IC50 of at most 100 nM. In addition, the “M2-8 Cell viability” value in the data set with M2-8 cells was “+ (cell viability is greater than 50% at the concentration of 1000 nM)”.
For `O=[N+]([O-])c1ccc(CN[C@@H]2CCCc3c2[nH]c2ccc(Br)cc32)cc1` [Compound 30, (R)-6-bromo-N-(4-nitrobenzyl)-2,3,4,9-tetrahydro-1H-carbazol-1-amine] the same measures were 101 to 300 nM and “+ (cell viability is greater than 50% at the concentration of 1000 nM)”.
In the same order, the values of `OCc1ccc(CN[C@@H]2CCCc3c2[nH]c2ccc(Br)nc32)s1` [Compound 67] are at most 100 nM and “+ (cell viability is greater than 50% at the concentration of 1000 nM)”.
In data set [1], `Cn1cncc1CN[C@@H]1CCCc2c1[nH]c1ccc(Br)cc21` [Compound 35, (R)-6-bromo-N-((1-methyl-1H-imidazol-5-yl)methyl)-2,3,4,9-tetrahydro-1H-carbazol-1-amine] had an IC50 of 301 to 1000 nM. The “M2-8 Cell viability” value in the data set with M2-8 cells was “+ (cell viability is greater than 50% at the concentration of 1000 nM)”.
`CC1(C)Cc2c([nH]c3ccc(Br)cc23)[C@H](NCc2ccccc2)C1` [Compound 17]: the IC50 in data set [1] was above 1000 nM. Besides, the “M2-8 Cell viability” value with M2-8 cells is “+ (cell viability is greater than 50% at the concentration of 1000 nM)”.
In the same order, the values of `Cn1c2c(c3cc(Br)ccc31)CCCC2NCc1ccccc1` (stereo not shown) [Compound 18] are above 1000 nM and “+ (cell viability is greater than 50% at the concentration of 1000 nM)”.
For `c1ccc(CN[C@@H]2CCCc3c2[nH]c2ccccc32)cc1` [Compound 4, (R)—N-benzyl-2,3,4,9-tetrahydro-1H-carbazol-1-amine] the same measures were above 1000 nM and “+ (cell viability is greater than 50% at the concentration of 1000 nM)”.
Molecule `CC1(C)CCC(NCc2ccccc2)c2[nH]c3ccc(Br)cc3c21` (stereo not shown) [Compound 16] displayed an IC50 in data set [1] above 1000 nM. In the data set on M2-8 cells, the “M2-8 Cell viability” value is listed as “+ (cell viability is greater than 50% at the concentration of 1000 nM)”.
Molecule `N[C@@H]1CCCc2c1[nH]c1ccc(Br)cc21` [Compound 15] displayed an IC50 in data set [1] above 1000 nM. Moreover, in the data set with M2-8 cells, the “M2-8 Cell viability” value was “+ (cell viability is greater than 50% at the concentration of 1000 nM)”.
In the same order, the values of `OCc1cccc(CN[C@@H]2CCCc3c2[nH]c2ccc(Br)cc32)c1` [Compound 57, (R)-(3-(((6-bromo-2,3,4,9-tetrahydro-1H-carbazol-1-yl)amino)methyl)phenyl)methanol] are at most 100 nM and “+ (cell viability is greater than 50% at the concentration of 1000 nM)”.
Take `c1ccc(CN[C@@H]2CCCc3c2[nH]c2ccc(-c4cn[nH]c4)cc32)cc1` [Compound 11, (R)—N-benzyl-6-(1H-pyrazol-4-yl)-2,3,4,9-tetrahydro-1H-carbazol-1-amine]: the IC50 in data set [1] is above 1000 nM. The “M2-8 Cell viability” value in the data set on M2-8 cells is given as “+ (cell viability is greater than 50% at the concentration of 1000 nM)”.
The molecule `OCCOCc1ccc(CN[C@@H]2CCCc3c2[nH]c2ccc(Br)nc32)cc1` [Compound 64] registered an IC50 in data set [1] of 101 to 300 nM. For the same molecule, the “M2-8 Cell viability” value in the data set on M2-8 cells is on record as “+ (cell viability is greater than 50% at the concentration of 1000 nM)”.
In the same order, the values of `CC(C)(O)c1ccc(C(CF)N[C@@H]2CCCc3c2[nH]c2ccc(Br)cc32)cc1` (single isomer, unassigned) [Compound 54] are at most 100 nM and “+ (cell viability is greater than 50% at the concentration of 1000 nM)”.
In turn, `CN(C)c1ccc(CN[C@@H]2CCCc3c2[nH]c2ccc(Br)cc32)cc1` [Compound 29, (R)-6-bromo-N-(4-(dimethylamino)benzyl)-2,3,4,9-tetrahydro-1H-carbazol-1-amine] displayed an IC50 in data set [1] of 101 to 300 nM. Besides, the “M2-8 Cell viability” value with M2-8 cells is listed as “+ (cell viability is greater than 50% at the concentration of 1000 nM)”.
In the same order, the values of `Oc1cccc(-c2ccc3[nH]c4c(c3c2)CCC[C@H]4NCc2ccccc2)c1` [Compound 9, (R)-3-(1-(benzylamino)-2,3,4,9-tetrahydro-1H-carbazol-6-yl)phenol] are 301 to 1000 nM and “+ (cell viability is greater than 50% at the concentration of 1000 nM)”.
As for `C(#CC1CC1)c1ccc2[nH]c3c(c2c1)CCC[C@H]3NCc1ccccc1` [Compound 34, (R)—N-benzyl-6-(cyclopropylethynyl)-2,3,4,9-tetrahydro-1H-carbazol-1-amine], the IC50 in data set [1] was above 1000 nM. Moreover, the “M2-8 Cell viability” value in the data set with M2-8 cells is reported as “+ (cell viability is greater than 50% at the concentration of 1000 nM)”.
For `OCCc1ccc2[nH]c3c(c2c1)CCC[C@H]3NCc1ccccc1` [Compound 12, (R)-2-(1-(benzylamino)-2,3,4,9-tetrahydro-1H-carbazol-6-yl)ethan-1-ol], in data set [1], the IC50 was above 1000 nM. For the same molecule, in the data set with M2-8 cells, the “M2-8 Cell viability” value is on record as “+ (cell viability is greater than 50% at the concentration of 1000 nM)”.
Take `CC(=O)c1ccc2[nH]c3c(c2c1)CCC[C@H]3NCc1ccccc1` [Compound 46, (R)-1-(1-(benzylamino)-2,3,4,9-tetrahydro-1H-carbazol-6-yl)ethan-1-one]: the IC50 in data set [1] lay within 301 to 1000 nM. The “M2-8 Cell viability” value in the data set with M2-8 cells was “+ (cell viability is greater than 50% at the concentration of 1000 nM)”.
In the same order, the values of `c1ccc(CN[C@@H]2CCCc3c2[nH]c2ccc(-c4ccccc4)cc32)cc1` [Compound 8, (R)—N-benzyl-6-phenyl-2,3,4,9-tetrahydro-1H-carbazol-1-amine] are above 1000 nM and “+ (cell viability is greater than 50% at the concentration of 1000 nM)”.
For `Brc1ccc2[nH]c3c(c2c1)CCC[C@H]3NCc1ccc(N2CCCC2)cc1` [Compound 22, (R)-6-bromo-N-(4-(pyrrolidin-1-yl)benzyl)-2,3,4,9-tetrahydro-1H-carbazol-1-amine] the same measures were 101 to 300 nM and “+ (cell viability is greater than 50% at the concentration of 1000 nM)”.
